A word on the IC50: it is the concentration that inhibits the measured activity by half.

One assay relates to J774. The assay can be described thus: Cytotoxicity against mouse J774 cells assessed as growth inhibition after 72 hrs by MTT assay. Type of assay: functional, cell-based. Particulars: J774, 72 h. Background: Tetrazolium dyes change colour on reduction, which living cells bring about.
A further assay concerns WEHI-164. The assay can be described thus: Cytotoxicity against mouse WEHI164 cells assessed as growth inhibition after 72 hrs by MTT assay. Format: functional, cell-based. To be noted: WEHI-164, 72 h.

On to `C[C@H](CCC1(O)O[C@H]2C[C@H]3[C@@H]4CC=C5C[C@@H](O)C[C@@H](O[C@@H]6OC[C@@H](O)[C@H](O)[C@H]6O[C@@H]6O[C@@H](C)[C@H](O)[C@@H](O)[C@H]6O)[C@]5(C)[C@H]4CC[C@]3(C)[C@H]2[C@@H]1C)CO[C@@H]1O[C@@H](C)[C@H](O)[C@@H](O)[C@H]1O` (mixture of isomers), for which the 50% inhibitory concentration (IC50) stood at 3.5 µg/mL with J774 and 3.1 µg/mL in the assay on WEHI-164.

For `C[C@H](CCC1(O)O[C@H]2C[C@H]3[C@@H]4CC=C5C[C@@H](O)C[C@@H](O[C@@H]6O[C@H](CO)[C@H](O)[C@H](O)[C@H]6O[C@@H]6O[C@@H](C)[C@H](O)[C@@H](O)[C@H]6O)[C@]5(C)[C@H]4CC[C@]3(C)[C@H]2[C@@H]1C)CO[C@@H]1O[C@@H](C)[C@H](O)[C@@H](O)[C@H]1O` (mixture of isomers), the values for the IC50 in the assay with J774 and in the assay on WEHI-164 were 5.1 µg/mL and 4.7 µg/mL, respectively.

As to `C[C@H](CCC1(O)O[C@H]2C[C@H]3[C@@H]4CC=C5C[C@@H](O)C[C@@H](O[C@@H]6O[C@H](CO)[C@H](O)[C@H](O)[C@H]6O)[C@]5(C)[C@H]4CC[C@]3(C)[C@H]2[C@@H]1C)CO[C@@H]1O[C@H](CO)[C@@H](O)[C@H](O)[C@H]1O[C@@H]1O[C@@H](C)[C@H](O)[C@@H](O)[C@H]1O` (mixture of isomers) [ASCALONICOSIDE A1/A2], the figures for the half-inhibitory concentration (IC50) in the assay on J774 and with WEHI-164 were 4 µg/mL and 3.7 µg/mL, respectively.

The record behind these values is ChEMBL document CHEMBL2346549, “Vavilosides A1/A2-B1/B2, new furostane glycosides from the bulbs of Allium vavilovii with cytotoxic activity” (Bioorg Med Chem, 2013).
